Source: US6420409B1, “Benzimidazole derivatives” (Fujisawa Pharmaceutical Co., Ltd., priority 1997, dated 2002)

System: db/db mice
Assay: Test for Activity of Decreasing Plasma Glucose using db/db Mice
Assay type: in vivo
Settings: female db/db mice, dose of 10 mg/kg, mixed with powdered chow (0.01%), 14 days, difference between db/db and +/+ mouse groups defined as 100%
From the text: Test Example: Test for Activity of Decreasing Plasma Glucose using db/db Mice
1-(Isoquinolin-3-ylmethyl)-2-methyl-6-(1-pentanesulfonyl-carbamoyl)benzimidazole (13)
Five-week-old female mice [C57BL/KsJ-dbm db+/db+, C57BL/KsJ-dbm +m/+m (Jackson Laboratory) were purchased, and were kept for 2 to 3 weeks. Then, these mice were used in the test.
A test compound was mixed with a powdered chow (CE-2, made by Nippon Clea) using a mortar. The mixing ratio was 0.01%. The mixed chow was changed twice a week. The feed amount and the remaining amount were recorded, and the intake was calculated from the difference therebetween.
The female db/db mice were grouped according to the body weight, the plasma glucose and the plasma triglyceride concentrations. […] Plasma glucose, triglyceride, and insulin concentrations were measured on day 0 and day 14 as well as plasma glucose and triglyceride concentrations on day 7. The body weight was measured on day 0, day 7 and day 14. […]
The plasma glucose was measured by a glucose oxidase method (Glucose CII-Test Wako made by Wako Pure Chemical Industries, Ltd.) using from 10 to 15 μl of plasma. The plasma triglyceride concentration was measured by a GPO-p-chlorophenol method (Triglyceride G-Test Wako made by Wako Pure Chemical Industries, Ltd.) or a GPO-DAOS method (Triglyceride E-Test Wako) using from 10 to 15 μl of plasma. […]

For CCCCCS(=O)(=O)NC(=O)c1ccc2nc(C)n(Cc3cc4ccccc4cn3)c2c1 [Compound 13, 1-(Isoquinolin-3-ylmethyl)-2-methyl-6-(1-pentane-sulfonylcarbamoyl)benzimidazole], the “plasma glucose decreasing activity” value was 44% and the TG concentration-decreasing activity (plasma triglyceride) was 77%.
